# Assay results from publication PMC8460738, “Berberine is an insulin secretagogue targeting the KCNH6 potassium channel” (Nature Communications, 2021).
# Target: T1, KCNH6 potassium channel (Homo sapiens, UniProt Q9H252)
# T1 construct: human KCNH6 (WT cDNA) transfected in HEK293T cells; FLAG-tagged for pull-down
# T1 sequence (Q9H252 1-958): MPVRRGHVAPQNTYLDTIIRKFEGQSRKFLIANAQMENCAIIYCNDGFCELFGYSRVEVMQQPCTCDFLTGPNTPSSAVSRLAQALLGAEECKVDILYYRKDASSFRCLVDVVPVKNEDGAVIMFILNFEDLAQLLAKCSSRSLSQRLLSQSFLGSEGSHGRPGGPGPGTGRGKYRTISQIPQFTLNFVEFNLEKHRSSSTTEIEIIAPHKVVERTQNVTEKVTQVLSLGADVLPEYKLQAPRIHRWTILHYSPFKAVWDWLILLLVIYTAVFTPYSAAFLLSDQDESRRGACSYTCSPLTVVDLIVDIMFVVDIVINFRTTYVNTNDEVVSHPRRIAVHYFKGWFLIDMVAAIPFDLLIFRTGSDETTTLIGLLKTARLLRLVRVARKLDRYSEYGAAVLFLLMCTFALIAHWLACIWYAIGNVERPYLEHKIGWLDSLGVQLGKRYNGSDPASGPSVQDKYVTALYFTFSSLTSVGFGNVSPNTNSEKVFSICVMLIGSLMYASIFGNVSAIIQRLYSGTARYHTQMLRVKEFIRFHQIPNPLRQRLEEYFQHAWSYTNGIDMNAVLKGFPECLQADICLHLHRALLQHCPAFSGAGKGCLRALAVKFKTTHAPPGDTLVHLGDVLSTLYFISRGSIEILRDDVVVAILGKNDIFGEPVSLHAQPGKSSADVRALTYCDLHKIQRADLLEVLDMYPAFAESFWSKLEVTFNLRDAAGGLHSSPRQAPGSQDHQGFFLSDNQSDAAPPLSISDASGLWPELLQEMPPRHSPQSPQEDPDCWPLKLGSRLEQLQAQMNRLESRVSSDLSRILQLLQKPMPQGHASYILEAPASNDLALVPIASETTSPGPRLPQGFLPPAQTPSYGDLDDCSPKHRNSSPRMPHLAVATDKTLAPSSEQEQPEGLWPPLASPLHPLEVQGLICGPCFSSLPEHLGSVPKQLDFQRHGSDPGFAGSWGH
# Assay: whole-cell patch clamp of KCNH6-transfected HEK293T cells; affinity-bead pull-down from cell extract competed by free BBR
# Assay type: cell-based
structure (smiles),measurement,value
"COc1ccc2cc3[n+](cc2c1OC)CCc1cc2c(cc1-3)OCO2 [BBR, berberine]",IC50,1.01 ± 0.04 µM
